The structures appear in SMILES notation.

Data set [1] addresses T1, human recombinant glutaminyl cyclase (hQC) (Homo sapiens, UniProt Q16769).
T1 construct: purchased Eurogentec AS-72230
The experiment in a line: In vitro determination of human QC inhibitory activity (SensoLyte Green Glutaminyl Cyclase Activity Assay Kit). Format: biochemical. Here is the method:
Basic statistical analysis was performed.

Data set [2] can be described thus: Parallel artificial membrane permeation assay for blood-brain barrier (PAMPA-BBB). Format: in vitro ADME, porcine. The following applies: for Papp: pig, PBS:EtOH (70:30), read-out: Blood-brain barrier permeability Pe; for CNS prediction: predictive penetration in the CNS from Pe. Here is the method:
A parallel artificial membrane permeation assay for blood-brain barrier (PAMPA-BBB) was used to evaluate the brain penetration of compounds of formula I, following the method described by L. Di et al., “High throughput artificial membrane permeability assay for blood-brain barrier”, European Journal of Medicinal Chemistry 2003, vol. 38. pp. 223-232. The in vitro permeability (Pe) of the test compounds through a lipid extract of porcine brain membrane was determined. Assayed compounds were tested using a mixture of PBS:EtOH (70:30). Assay validation was made by comparing the experimental and reported permeability values of a set of fourteen commercial drugs and a lineal correlation between experimental and reported permeability values of the fourteen commercial drugs was obtained (y=1.678 x−1.447; R^2=0.9313). From this equation and taking into account the limits established by Di et al. for BBB permeation, the ranges of permeability were established, as follows. Compounds of high BBB permeation (CNS+): Pe (10^−6 cm s^−1)>5.26; compounds of low BBB permeation (CNS−): Pe (10^−6 cm s^−1)<1.91; and compounds of uncertain BBB permeation (CNS+/−): 5.26>Pe (10^−6 cm s^−1)>1.91. The permeability results are averages of three different experiments in triplicate and a predictive penetration in the CNS is also given (Table 5).

Data set [3] deals with T2, recombinant human sEH (hsEH) (Homo sapiens, UniProt P34913).
T2 sequence (P34913 1-555): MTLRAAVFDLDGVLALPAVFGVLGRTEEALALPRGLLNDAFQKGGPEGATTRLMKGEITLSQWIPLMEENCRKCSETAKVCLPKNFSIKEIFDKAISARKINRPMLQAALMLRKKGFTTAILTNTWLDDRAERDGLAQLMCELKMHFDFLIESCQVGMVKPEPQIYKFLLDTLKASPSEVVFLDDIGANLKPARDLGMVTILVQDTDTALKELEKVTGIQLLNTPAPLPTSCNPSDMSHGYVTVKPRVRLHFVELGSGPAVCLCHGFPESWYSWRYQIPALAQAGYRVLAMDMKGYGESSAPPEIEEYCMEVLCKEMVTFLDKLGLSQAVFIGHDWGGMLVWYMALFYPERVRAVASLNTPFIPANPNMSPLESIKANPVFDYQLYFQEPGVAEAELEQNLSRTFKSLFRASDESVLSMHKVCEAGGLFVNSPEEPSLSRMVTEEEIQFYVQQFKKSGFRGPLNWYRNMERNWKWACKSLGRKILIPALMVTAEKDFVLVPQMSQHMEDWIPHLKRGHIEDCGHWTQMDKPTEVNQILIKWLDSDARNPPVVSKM
The experiment in a line: In vitro determination of sEH inhibitory activity (fluorescent PHOME assay).
Protocol: Control compound (TPPU): N-[1-(1-Oxopropyl)-4-piperidinyl]-N′-[4-(trifluoromethoxy)phenyl]urea.
Five μL of DMSO were added to background and positive control wells, and then 5 μL of inhibitor solution were added in the inhibitor wells. Five μL of the solution of hsEH were added to the positive control and inhibitor wells and the mixture was stirred. A 1/21 dilution of the solution of PHOME with assay buffer was prepared according to the final volume required, and then 105 μL of each well were added. The plate was carefully shaken for 10 seconds and was incubated for 5 minutes at room temperature. […] The intensity of fluorescence was used to analyze and calculate the IC50 values. Results were obtained by regression analysis from at least three data points in a linear region of the curve. IC50 values are average of minimum three independent replicates.

For a further data set, the system named is LPS stimulated BV2 cells. The data set is described as follows: Cytokine release in LPS stimulated BV2 cells. Format: cell-based, murine. The note with it: compound 10 μM, 24 h. As to the method:
Compounds of formula I were diluted from 250 mM DMSO stock solutions to a 10 mM stock in DMSO. Thereafter, the compounds were diluted to 10 μM and 1 μM in medium, so that the final DMSO concentration in the well was 0.1% for all conditions. The stock solutions were stored at −20° C. until further use.
Culture and treatment of BV-2 cells: The murine microglial cell line BV-2 was cultivated in Dulbecco's modified eagle medium (DMEM) supplemented with 10% fetal calf serum (FCS), 1% penicillin/streptomycin and 2 mM L-glutamine (culture medium). For the lipopolysaccharide (LPS) stimulation assay, 20,000 BV-2 cells per well (uncoated 96 well plates) were plated out. After 48 h, the medium was changed to treatment medium (DMEM, 5% FCS, 2 mM L-glutamine) and cells were maintained in treatment medium for the remaining culture period. After changing cells to treatment medium, the compounds were administered 1 h before LPS stimulation (Sigma-Aldrich; L6529; 1 mg/mL stock in ddH2O, final concentration in well: 100 ng/mL (dilutions in medium)). Cells treated with vehicle and LPS alone served as controls. All wells were handled the same way. After 24 h of stimulation, cell supernatants were collected for the cytokine measurement. The experiment was performed in n=6 technical replicates for all groups.
Cytokine measurement: The samples were diluted 1:2 and analysed for 4 cytokines (IL-1β, IL-2, IL-6, TNF-α) with a commercially available immunosorbent assay kit (U-plex, K15069L, Mesoscale Discovery) according to the instructions of the manufacturer. In brief, 25 μL of diluent 41 and 25 μL sample or respective standard were placed into wells of the pre-coated U-plex plate and incubated on an orbital shaker at room temperature for 1 h. Plates were washed 3 times with phosphate buffered saline with 0.05% Tween 20 (PBST) and thereafter 50 μL of detection antibody were added. Plates were again incubated on an orbital shaker at room temperature for 1 h. After another 3 washing steps with PBST, 150 μL of Mesoscale Discovery (MSD) GOLD Read Buffer were added and plates were read on Sector imager. Data were evaluated in comparison to calibration curves provided in the kit.
Statistics: Basic statistical analysis was performed. Group differences were evaluated by e.g. one-way ANOVA followed by a posthoc test, if appropriate.

T1 sequence (Q16769 29-361): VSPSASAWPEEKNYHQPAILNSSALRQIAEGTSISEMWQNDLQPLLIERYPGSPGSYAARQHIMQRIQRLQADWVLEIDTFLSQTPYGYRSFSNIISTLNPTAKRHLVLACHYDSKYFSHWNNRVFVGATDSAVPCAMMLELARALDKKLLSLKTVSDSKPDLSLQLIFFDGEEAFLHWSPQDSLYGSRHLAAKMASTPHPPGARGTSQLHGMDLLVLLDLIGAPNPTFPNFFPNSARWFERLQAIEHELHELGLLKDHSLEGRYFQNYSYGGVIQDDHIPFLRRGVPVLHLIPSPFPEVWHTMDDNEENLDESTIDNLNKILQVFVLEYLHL

The term IC50 denotes the concentration that gives 50% inhibition. On to `Cc1cncn1CCCNC(=O)NC1C2CC3CC(C2)CC1(F)C3` (racemic) [Iaa, (±)-1-(1-fluoroadamantan-2-yl)-3-[3-(5-methyl-1H-imidazol-1-yl)propyl]urea], for which the half-maximal inhibitory concentration (IC50) in data set [1] is 767 nM. Besides, in data set [2], the Papp was 7.4 ×10⁻⁶ cm/s and the CNS prediction result is “CNS+ (Compounds of high BBB permeation (CNS+): Pe (10^−6 cm s^−1)>5.26)”. In addition, in data set [3], the IC50 was found to be 5900 nM.

`Cc1cncn1CCCNC(=O)NC1C2CC3CC(C2)CC1(Cl)C3` (racemic) [Iz, (±)-1-(1-chloroadamantan-2-yl)-3-[3-(5-methyl-1H-imidazol-1-yl)propyl]urea]: the half-inhibitory concentration (IC50) in data set [1] worked out at 496 nM. Besides, in data set [2], the Papp worked out at 6 ×10⁻⁶ cm/s and the CNS prediction entry is reported as “CNS+ (Compounds of high BBB permeation (CNS+): Pe (10^−6 cm s^−1)>5.26)”. For the same compound, the IC50 in data set [3] is 30 nM.

On to `Cc1cncn1CCCNC(=O)NC12CC3CC(CC(C3)C1)C2` [Ia, 1-(adamantan-1-yl)-3-[3-(5-methyl-1H-imidazol-1-yl)propyl]urea], for which the IC50 in data set [1] stood at 610 nM; in data set [3], 35 nM. In data set [2], the Papp came to 7.1 ×10⁻⁶ cm/s. In data set [2], the CNS prediction entry is on record as “CNS+ (Compounds of high BBB permeation (CNS+): Pe (10^−6 cm s^−1)>5.26)”.

On to `Cc1cncn1CCCNC(=O)N[C@H]1C2CC3CC1C[C@](Cl)(C3)C2` [Iab, trans-1-(5-chloroadamantan-2-yl)-3-[3-(5-methyl-1H-imidazol-1-yl)propyl]urea], for which the IC50 in data set [1] turned out to be 559 nM. For the same compound, in data set [2], the Papp worked out at 13.1 ×10⁻⁶ cm/s and the CNS prediction entry was “CNS+ (Compounds of high BBB permeation (CNS+): Pe (10^−6 cm s^−1)>5.26)”. The IC50 in data set [3] was determined as 39 nM.

Turning to `Cc1cncn1CCCNC(=O)N[C@H]1C2CC3CC1C[C@](F)(C3)C2` [Iac, trans-1-(5-fluoroadamantan-2-yl)-3-[3-(5-methyl-1H-imidazol-1-yl)propyl]urea], the IC50 in data set [1] was 236 nM. In data set [2], the Papp is 8.6 ×10⁻⁶ cm/s and the CNS prediction result is “CNS+ (Compounds of high BBB permeation (CNS+): Pe (10^−6 cm s^−1)>5.26)”. Further, in data set [3], the IC50 came out at 20 nM.

With `O=C(NCCCn1ccnc1)NC12CC3CC(CC(C3)C1)C2` [Ib, 1-[3-(1H-imidazol-1-yl)propyl]-3-(adamantan-1-yl)urea], the values for the IC50 in data set [1] and in data set [3] were 12700 nM and 93 nM, respectively.

Regarding `Cc1cncn1CCCNC(=O)NC12CC3CC(CC(C)(C3)C1)C2` [Ic, 1-[3-(5-methyl-1H-imidazol-1-yl)propyl]-3-(3-methyladamantan-1-yl)urea], in data set [2], the Papp is 10.2 ×10⁻⁶ cm/s and the CNS prediction result was “CNS+ (Compounds of high BBB permeation (CNS+): Pe (10^−6 cm s^−1)>5.26)”. Besides, the IC50 in data set [3] was determined as 13.3 nM.

With `Cc1cncn1CCCNC(=O)NC12CC3CC(C)(CC(C)(C3)C1)C2` [Ie, 1-(3,5-dimethyladamantan-1-yl)-3-[3-(5-methyl-1H-imidazol-1-yl)propyl]urea], the IC50 was 2100 nM in data set [1] and 29 nM in data set [3]. The Papp in data set [2] turned out to be 8.8 ×10⁻⁶ cm/s. For the same compound, the CNS prediction entry in data set [2] is “CNS+ (Compounds of high BBB permeation (CNS+): Pe (10^−6 cm s^−1)>5.26)”.

Regarding `Cc1cncn1CCCNC(=O)NC12CC3CC(CC(Cl)(C3)C1)C2` [If, 1-(3-chloroadamantan-1-yl)-3-[3-(5-methyl-1H-imidazol-1-yl)propyl]urea], the IC50 in data set [1] is 990 nM; in data set [3] it was 37 nM.

As for `Cc1cncn1CCCNC(=O)NC12CC3CC(CC(F)(C3)C1)C2` [Ig, 1-(3-fluoroadamantan-1-yl)-3-[3-(5-methyl-1H-imidazol-1-yl)propyl]urea], the values for the IC50 in data set [1] and in data set [3] were 810 nM and 150 nM, respectively.

Consider `Cc1cncn1CCCNC(=O)NC12CC3CC(CC(O)(C3)C1)C2` [Ih, 1-(3-hydroxyadamantan-1-yl)-3-[3-(5-methyl-1H-imidazol-1-yl)propyl]urea], for which the figures for the half-maximal inhibitory concentration (IC50) in data set [1] and in data set [3] were 1040 nM and 330 nM, respectively.

As for `O=C(NCCCn1ccnc1)NC1C2CC3CC(C2)CC1C3` (stereo not shown) [Ij, 1-[3-(1H-imidazol-1-yl)propyl]-3-(adamantan-2-yl)urea], in data set [1], the IC50 is 5200 nM. Moreover, in data set [2], the Papp stood at 9.4 ×10⁻⁶ cm/s and the CNS prediction entry is recorded as “CNS+ (Compounds of high BBB permeation (CNS+): Pe (10^−6 cm s^−1)>5.26)”. In addition, the concentration for half-maximal inhibition (IC50) in data set [3] turned out to be 45 nM.

Regarding `Cc1cncn1CCCNC(=O)NC12CC3CC(CC(C3)O1)C2` [Iq, 1-(2-oxaadamantan-1-yl)-3-[3-(5-methyl-1H-imidazol-1-yl)propyl]urea], in data set [2], the Papp was found to be 26.4 ×10⁻⁶ cm/s and the CNS prediction result is “CNS+ (Compounds of high BBB permeation (CNS+): Pe (10^−6 cm s^−1)>5.26)”. Besides, in data set [3], the IC50 was 5100 nM.

For the compound `Cc1cncn1CCCNC(=O)NCC12CC3CC(CC1C3)C2` [Iu, 1-[(noradamantan-3-yl)methyl]-3-[3-(5-methyl-1H-imidazol-1-yl)propyl]urea], in data set [2], the Papp is 5.4 ×10⁻⁶ cm/s and the CNS prediction entry was “CNS+ (Compounds of high BBB permeation (CNS+): Pe (10^−6 cm s^−1)>5.26)”. Further, the IC50 in data set [3] was 194 nM.

For `Cc1cncn1CCCNC(=O)NCC12CC3(C)C4(C)CC1CC4(C)C3(C)C2` [Iw, 1-[3-(5-methyl-1H-imidazol-1-yl)propyl]-3-[(3,4,8,9-tetramethyltetracyclo[4.4.0.0^3,9.0^4,8]decan-1-yl)methyl]urea], the IC50 came to 6800 nM in data set [1] and 72 nM in data set [3].

For `Cc1cncn1CCCNC(=O)NC(C)C12CC3CC(CC(C3)C1)C2` (stereo not shown) [Ix, 1-[1-(adamantan-1-yl)ethyl]-3-[3-(5-methyl-1H-imidazol-1-yl)propyl]urea], in data set [2], the Papp is 6.5 ×10⁻⁶ cm/s and the CNS prediction result is recorded as “CNS+ (Compounds of high BBB permeation (CNS+): Pe (10^−6 cm s^−1)>5.26)”. The half-maximal inhibitory concentration (IC50) in data set [3] amounted to 59 nM.

In the case of `CCC(=O)N1CCC(NC(=O)Nc2ccc(OC(F)(F)F)cc2)CC1` [TPPU, N-[1-(1-Oxopropyl)-4-piperidinyl]-N′-[4-(trifluoromethoxy)phenyl]urea, reference compound], in the data set on LPS stimulated BV2 cells, the IL-1β level is recorded as 125 % of vehicle control, the IL-2 level was 113 % of vehicle control, the IL-6 level is 117 % of vehicle control and the TNF-α level is listed as 96 % of vehicle control.

Take `C[C@@H]1C[C@H]2[C@@H]3CCC4=CC(=O)C=C[C@]4(C)[C@@]3(F)[C@@H](O)C[C@]2(C)[C@@]1(O)C(=O)CO` [dexamethasone, reference compound]: in the data set on LPS stimulated BV2 cells, the IL-1β level is recorded as 42 % of vehicle control, the IL-2 level is reported as 50 % of vehicle control, the IL-6 level was 55 % of vehicle control and the TNF-α level is 49 % of vehicle control.

(Values after patent US20260092039A1, “DUAL INHIBITORS FOR THE TREATMENT OF ALZHEIMER'S DISEASE” (UNIVERSITAT DE BARCELONA, priority 2023, published 2026).)
